Test results as given in patent US6511815B1, “Method for quantitating competitive binding of molecules to proteins utilizing fluorescence polarization” (priority 1996, dated 2003).

Target: T1, Estrogen receptor (Homo sapiens, UniProt P03372)
T1 construct: purchased PanVera Corporation, Madison, Wis
Assay: Competitive fluorescence polarization assay, displacement of fluormone ES1 from ER by environmental compounds
Assay type: binding
Conditions: 1 nM ES1, 10 nM ER, 2.5 hours at room temperature, 360/485 nm
Method: Many compounds found in the environment are know to act as natural estrogens. […] The two pesticides were tested individually and together. […] Estrogen receptor was added to each tube at a final concentration of 10 nM. The mixtures were allowed to equilibrate for 2.5 hours at room temperature and the polarization values were read 360/485 nm excitation/emission.

T1 sequence (P03372 whole entry): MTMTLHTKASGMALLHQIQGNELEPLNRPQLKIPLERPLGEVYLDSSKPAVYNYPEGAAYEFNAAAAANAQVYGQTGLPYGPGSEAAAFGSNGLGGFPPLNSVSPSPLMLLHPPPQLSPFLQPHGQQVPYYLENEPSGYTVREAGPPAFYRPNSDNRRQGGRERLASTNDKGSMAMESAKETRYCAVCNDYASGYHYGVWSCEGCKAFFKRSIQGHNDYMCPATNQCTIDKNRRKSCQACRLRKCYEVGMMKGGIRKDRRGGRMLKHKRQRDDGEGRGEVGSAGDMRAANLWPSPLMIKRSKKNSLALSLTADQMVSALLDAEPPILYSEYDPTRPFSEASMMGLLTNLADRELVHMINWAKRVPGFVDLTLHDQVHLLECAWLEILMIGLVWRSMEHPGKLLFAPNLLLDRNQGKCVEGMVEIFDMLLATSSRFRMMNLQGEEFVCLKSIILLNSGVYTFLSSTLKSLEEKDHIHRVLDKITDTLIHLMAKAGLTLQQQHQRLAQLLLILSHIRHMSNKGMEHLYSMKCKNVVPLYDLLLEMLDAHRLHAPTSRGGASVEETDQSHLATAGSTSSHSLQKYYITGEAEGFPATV

ClC1=C(Cl)C2(Cl)C3C(Cl)C(Cl)CC3C1(Cl)C2(Cl)Cl (stereo not shown) [chlordane]
ability to displace fluormone ES1 binding to ER: effectively competed the fluormone ES1 off the estrogen receptor
